From PubChem BioAssay AID2060892 (Molecular Pharmacology Branch, DTP, NCI, 2025)
pIC50: −log10 of the molar value.

Test system: HOP-62 complex spheroids with HUVEC/MSC, viability
Assay: Anticancer human tumor HOP-62 cell line growth inhibition [RAS];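 note: spheroids exposed to agents for seven days before readout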;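 for viability, T/C: 100% = DMSO vehicle control viability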
Settings: for pIC50: curve of first compound; for viability, T/C: stronger effect = lower value
Method in brief: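 Agents were tested in combination matrices in half-log decrements from a top concentration at or near clinical Cmax (10 microM if undetermined). Targets were multi-cell spheroids of tumour lines plus HUVEC and MSC stromal cells.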

[1] = second compound 0.000949 µM, first compound 0.00316 µM
[2] = second compound 0.000949 µM, first compound 0.01 µM
[3] = second compound 0.000949 µM, first compound 0.0316 µM
[4] = second compound 0.000949 µM, first compound 0.1 µM
[5] = second compound 0.000949 µM, first compound 0.316 µM
[6] = second compound 0.000949 µM, first compound 1 µM
[7] = second compound 0.003 µM, first compound 0.00316 µM
[8] = second compound 0.003 µM, first compound 0.01 µM
[9] = second compound 0.003 µM, first compound 0.0316 µM
[10] = second compound 0.003 µM, first compound 0.1 µM
[11] = second compound 0.003 µM, first compound 0.316 µM
[12] = second compound 0.003 µM, first compound 1 µM
[13] = second compound 0.00949 µM, first compound 0.00316 µM
[14] = second compound 0.00949 µM, first compound 0.01 µM
[15] = second compound 0.00949 µM, first compound 0.0316 µM
[16] = second compound 0.00949 µM, first compound 0.1 µM
[17] = second compound 0.00949 µM, first compound 0.316 µM
[18] = second compound 0.00949 µM, first compound 1 µM
[19] = second compound 0.03 µM, first compound 0.00316 µM
[20] = second compound 0.03 µM, first compound 0.01 µM
[21] = second compound 0.03 µM, first compound 0.0316 µM
[22] = second compound 0.03 µM, first compound 0.1 µM
[23] = second compound 0.03 µM, first compound 0.316 µM
[24] = second compound 0.03 µM, first compound 1 µM
[25] = second compound 0.0949 µM, first compound 0.00316 µM
[26] = second compound 0.0949 µM, first compound 0.01 µM
[27] = second compound 0.0949 µM, first compound 0.0316 µM
[28] = second compound 0.0949 µM, first compound 0.1 µM
[29] = second compound 0.0949 µM, first compound 0.316 µM
[30] = second compound 0.0949 µM, first compound 1 µM
[31] = second compound 0.3 µM, first compound 0.00316 µM
[32] = second compound 0.3 µM, first compound 0.01 µM
[33] = second compound 0.3 µM, first compound 0.0316 µM
[34] = second compound 0.3 µM, first compound 0.1 µM
[35] = second compound 0.3 µM, first compound 0.316 µM
[36] = second compound 0.3 µM, first compound 1 µM

## CC1(C)CCC(Nc2ncc(C(F)(F)F)c(-c3c[nH]c4c(P(C)(C)=O)c(C#N)ccc34)n2)CN1 (stereo unspecified) + C=CC(=O)N1CCN(c2nc(OCC3CCCN3C)nc3c(F)c(-c4nc(N)cc(C)c4C(F)(F)F)c(Cl)cc23)C(C)C1
Second compound 0.00316 µM
  pIC50: > 9.02
Second compound 0.01 µM
  pIC50: 9.01
Second compound 0.0316 µM
  pIC50: > 9.02
Second compound 0.1 µM
  pIC50: > 9.02
Second compound 0.316 µM
  pIC50: > 9.02
Second compound 1 µM
  pIC50: 9.02
Second compound 0.00316 µM, first compound 0.000949 µM
  viability, T/C: 49.6%
Second compound 0.00316 µM, first compound 0.003 µM
  viability, T/C: 25%
Second compound 0.00316 µM, first compound 0.00949 µM
  viability, T/C: 19.8%
Second compound 0.00316 µM, first compound 0.03 µM
  viability, T/C: 15.8%
Second compound 0.00316 µM, first compound 0.0949 µM
  viability, T/C: 20.4%
Second compound 0.00316 µM, first compound 0.3 µM
  viability, T/C: 21.5%
Second compound 0.01 µM, first compound 0.000949 µM
  viability, T/C: 50.7%
Second compound 0.01 µM, first compound 0.003 µM
  viability, T/C: 24%
Second compound 0.01 µM, first compound 0.00949 µM
  viability, T/C: 20.3%
Second compound 0.01 µM, first compound 0.03 µM
  viability, T/C: 16.4%
Second compound 0.01 µM, first compound 0.0949 µM
  viability, T/C: 20%
Second compound 0.01 µM, first compound 0.3 µM
  viability, T/C: 19.8%
Second compound 0.0316 µM, first compound 0.000949 µM
  viability, T/C: 45.2%
Second compound 0.0316 µM, first compound 0.003 µM
  viability, T/C: 23.8%
Second compound 0.0316 µM, first compound 0.00949 µM
  viability, T/C: 19.6%
Second compound 0.0316 µM, first compound 0.03 µM
  viability, T/C: 15.4%
Second compound 0.0316 µM, first compound 0.0949 µM
  viability, T/C: 20.8%
Second compound 0.0316 µM, first compound 0.3 µM
  viability, T/C: 22.5%
Second compound 0.1 µM, first compound 0.000949 µM
  viability, T/C: 45.1%
Second compound 0.1 µM, first compound 0.003 µM
  viability, T/C: 22.6%
Second compound 0.1 µM, first compound 0.00949 µM
  viability, T/C: 21.2%
Second compound 0.1 µM, first compound 0.03 µM
  viability, T/C: 17.5%
Second compound 0.1 µM, first compound 0.0949 µM
  viability, T/C: 16%
Second compound 0.1 µM, first compound 0.3 µM
  viability, T/C: 20%
Second compound 0.316 µM, first compound 0.000949 µM
  viability, T/C: 48.8%
Second compound 0.316 µM, first compound 0.003 µM
  viability, T/C: 25.8%
Second compound 0.316 µM, first compound 0.00949 µM
  viability, T/C: 19.7%
Second compound 0.316 µM, first compound 0.03 µM
  viability, T/C: 16.8%
Second compound 0.316 µM, first compound 0.0949 µM
  viability, T/C: 21.2%
Second compound 0.316 µM, first compound 0.3 µM
  viability, T/C: 22.7%
Second compound 1 µM, first compound 0.000949 µM
  viability, T/C: 50.3%
Second compound 1 µM, first compound 0.003 µM
  viability, T/C: 20.7%
Second compound 1 µM, first compound 0.00949 µM
  viability, T/C: 18.4%
Second compound 1 µM, first compound 0.03 µM
  viability, T/C: 19.6%
Second compound 1 µM, first compound 0.0949 µM
  viability, T/C: 17.6%
Second compound 1 µM, first compound 0.3 µM
  viability, T/C: 19.1%

## C=CC(=O)Nc1cc(Nc2nccc(-c3cn(C)c4ccccc34)n2)c(OC)cc1N(C)CCN(C)C + CCn1c(-c2cc(N3CCN(C)CC3)cnc2C(C)OC)c2c3cc(ccc31)-c1csc(n1)CC(NC(=O)C1CC1C)C(=O)N1CCCC(N1)C(=O)OCC(C)(C)C2
Second compound 0.000949 µM
  pIC50: < 6.00
Second compound 0.003 µM
  pIC50: 6.16
Second compound 0.00949 µM
  pIC50: 6.56
Second compound 0.03 µM
  pIC50: 8.20
Second compound 0.0949 µM
  pIC50: > 8.50
Second compound 0.3 µM
  pIC50: > 8.50
[1]
  viability, T/C: 119%
[2]
  viability, T/C: 114%
[3]
  viability, T/C: 85.8%
[4]
  viability, T/C: 120%
[5]
  viability, T/C: 106%
[6]
  viability, T/C: 66.4%
[7]
  viability, T/C: 97.4%
[8]
  viability, T/C: 88.6%
[9]
  viability, T/C: 74.4%
[10]
  viability, T/C: 89.5%
[11]
  viability, T/C: 75.9%
[12]
  viability, T/C: 37.4%
[13]
  viability, T/C: 76.6%
[14]
  viability, T/C: 62.5%
[15]
  viability, T/C: 59.7%
[16]
  viability, T/C: 66.5%
[17]
  viability, T/C: 47.3%
[18]
  viability, T/C: 33.2%
[19]
  viability, T/C: 52%
[20]
  viability, T/C: 49.2%
[21]
  viability, T/C: 42.7%
[22]
  viability, T/C: 43.3%
[23]
  viability, T/C: 26.6%
[24]
  viability, T/C: 30.1%
[25]
  viability, T/C: 40.2%
[26]
  viability, T/C: 44.1%
[27]
  viability, T/C: 33.8%
[28]
  viability, T/C: 32.1%
[29]
  viability, T/C: 26.4%
[30]
  viability, T/C: 24%
[31]
  viability, T/C: 42.1%
[32]
  viability, T/C: 35.6%
[33]
  viability, T/C: 37.4%
[34]
  viability, T/C: 33.7%
[35]
  viability, T/C: 22.9%
[36]
  viability, T/C: 22.7%

## O=C(c1ccc(F)c(F)c1Nc1ccc(I)cc1F)N1CC(O)([C@@H]2CCCCN2)C1 + CCn1c(-c2cc(N3CCN(C)CC3)cnc2C(C)OC)c2c3cc(ccc31)-c1csc(n1)CC(NC(=O)C1CC1C)C(=O)N1CCCC(N1)C(=O)OCC(C)(C)C2
Second compound 0.000949 µM
  pIC50: 6.50
Second compound 0.003 µM
  pIC50: 6.95
Second compound 0.00949 µM
  pIC50: 7.25
Second compound 0.03 µM
  pIC50: > 8.50
Second compound 0.0949 µM
  pIC50: > 8.50
Second compound 0.3 µM
  pIC50: > 8.50
[1]
  viability, T/C: 119%
[2]
  viability, T/C: 113%
[3]
  viability, T/C: 78.7%
[4]
  viability, T/C: 75.9%
[5]
  viability, T/C: 51.2%
[6]
  viability, T/C: 27%
[7]
  viability, T/C: 86.3%
[8]
  viability, T/C: 73.3%
[9]
  viability, T/C: 56.9%
[10]
  viability, T/C: 56.5%
[11]
  viability, T/C: 39.3%
[12]
  viability, T/C: 37.3%
[13]
  viability, T/C: 65.5%
[14]
  viability, T/C: 52%
[15]
  viability, T/C: 67.8%
[16]
  viability, T/C: 38.5%
[17]
  viability, T/C: 28.5%
[18]
  viability, T/C: 30.9%
[19]
  viability, T/C: 49.9%
[20]
  viability, T/C: 45.9%
[21]
  viability, T/C: 33.1%
[22]
  viability, T/C: 32.2%
[23]
  viability, T/C: 29.2%
[24]
  viability, T/C: 37.3%
[25]
  viability, T/C: 36.7%
[26]
  viability, T/C: 35.3%
[27]
  viability, T/C: 32.9%
[28]
  viability, T/C: 41.7%
[29]
  viability, T/C: 32.8%
[30]
  viability, T/C: 37.5%
[31]
  viability, T/C: 37%
[32]
  viability, T/C: 39.1%
[33]
  viability, T/C: 37%
[34]
  viability, T/C: 38.7%
[35]
  viability, T/C: 32.9%
[36]
  viability, T/C: 38.3%
